One experiment concerns the target T1, hDGAT1 (Homo sapiens, UniProt O75907).
T1 construct: made in house; host or cells: Sf9 insect cells (baculovirus); microsomal fraction
T1 sequence (O75907 1-488): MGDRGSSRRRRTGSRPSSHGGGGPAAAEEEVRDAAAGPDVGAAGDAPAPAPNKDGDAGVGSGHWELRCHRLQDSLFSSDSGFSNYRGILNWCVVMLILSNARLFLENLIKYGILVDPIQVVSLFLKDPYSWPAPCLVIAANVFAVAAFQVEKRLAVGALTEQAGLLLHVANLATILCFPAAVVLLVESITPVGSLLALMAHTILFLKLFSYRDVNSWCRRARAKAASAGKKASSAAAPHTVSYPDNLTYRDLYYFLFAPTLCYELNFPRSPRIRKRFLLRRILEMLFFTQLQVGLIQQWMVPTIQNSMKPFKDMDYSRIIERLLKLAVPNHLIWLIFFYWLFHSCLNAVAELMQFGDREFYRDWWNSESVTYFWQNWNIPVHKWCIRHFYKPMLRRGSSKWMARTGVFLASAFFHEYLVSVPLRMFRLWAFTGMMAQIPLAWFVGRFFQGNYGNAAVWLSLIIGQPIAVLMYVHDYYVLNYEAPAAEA
The experiment in a line: In-vitro DGAT1 assay with hDGAT1 microsomes from Sf9 cells (14C oleoyl CoA, scintillation counting). The class given is biochemical. The following applies: read-out: Percentage inhibition of hDGAT1. The method, boiled down:
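Microsomes from Sf9 cells infected with hDGAT1 baculovirus (MOI 5, harvested ~66-72 h) were incubated with [14C]oleoyl-CoA and 1,2-dioleoyl-sn-glycerol at 37 °C for 10 min, in duplicate. After alkaline ethanol stop, triglycerides were heptane-extracted and counted by liquid scintillation; percent inhibition was plotted against compound concentration (nM).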

The target in the next experiment is DGAT2 (Homo sapiens, UniProt Q96PD7). The following applies: cited from earlier work.
DGAT2, sequence (Q96PD7 whole entry, species assumed): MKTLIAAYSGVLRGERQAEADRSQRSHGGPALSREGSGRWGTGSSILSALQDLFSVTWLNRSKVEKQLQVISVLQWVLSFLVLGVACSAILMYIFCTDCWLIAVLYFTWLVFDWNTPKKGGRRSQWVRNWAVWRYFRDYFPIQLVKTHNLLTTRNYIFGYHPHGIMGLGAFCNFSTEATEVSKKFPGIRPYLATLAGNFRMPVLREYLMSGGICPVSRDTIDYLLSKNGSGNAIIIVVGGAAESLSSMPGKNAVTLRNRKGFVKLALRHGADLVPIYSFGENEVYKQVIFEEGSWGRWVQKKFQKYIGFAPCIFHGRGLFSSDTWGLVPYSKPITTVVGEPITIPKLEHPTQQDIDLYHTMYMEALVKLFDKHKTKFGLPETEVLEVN
Experiment [1] relates to DGAT1 mediated retinyl-ester formation in Caco-2 cells. The following applies: cited from earlier work.

In general, inhibition refers to the drop in the measured response relative to a control, in per cent.

For the compound `CC(C)(O)C1CCC(c2ncc(-c3ccc(NC(=O)Nc4cc(F)c(F)cc4F)cc3)s2)CC1` (stereo not drawn) [Example 585, 1-(4-(2-(4-(2-Hydroxypropan-2-yl)cyclohexyl)thiazol-5-yl)phenyl)-3-(2,4,5-trifluorophenyl)urea], on hDGAT1, the inhibition at 1 µM is greater than 50%.

As to `CC(C)(N)C1CCC(c2ncc(-c3ccc(NC(=O)Nc4cc(F)c(F)cc4F)cc3)s2)CC1` (stereo not drawn) [Example 587, 1-(4-(2-(4-(2-Aminopropan-2-yl)cyclohexyl)thiazol-5-yl)phenyl)-3-(2,4,5-trifluorophenyl)urea], the inhibition at 1 µM on hDGAT1 is greater than 50%.

On to `CC(C)(N)C1CCC(c2ncc(-c3ccc(NC(=O)Nc4ccc(F)cc4F)cc3)s2)CC1` (stereo not drawn) [Example 589, 1-(4-(2-(4-(2-Aminopropan-2-yl)cyclohexyl)thiazol-5-yl)phenyl)-3-(2,4-difluorophenyl)urea], for which the inhibition at 1 µM at hDGAT1 was greater than 50%.

On to `CC(C)(N)CC1CCC(c2ncc(-c3ccc(NC(=O)Nc4cc(F)c(F)cc4F)cc3)s2)CC1` (stereo not drawn) [Example 591, 1-(4-(2-(4-(2-Amino-2-methylpropyl)cyclohexyl)thiazol-5-yl)phenyl)-3-(2,4,5-trifluorophenyl)urea], for which the inhibition at 1 µM at hDGAT1 was greater than 50%.

Turning to `CC(C)C(NC(=O)c1ccc(-c2ccc(Nc3nc4ccc(F)cc4s3)cc2)cc1)C(=O)O` (stereo not drawn) [XP620, 2-(4′-(6-fluorobenzo[d]thiazol-2-ylamino)biphenyl-4-ylcarboxamido)-3-methylbutanoic acid], the “activity against DGAT2” value on DGAT2 was “no activity”. In addition, the “block of DGAT1 mediated retinyl-ester formation” value in experiment [1] is listed as “able to block”.
